Legend:
Type in all cases: in vivo
[1] = test system: mutant rice (ML0831265-01493, ATCC deposit PTA-12933, mutation G2096S); experiment: Tank mixes of safeners with propaquizafop or quizalofop: regrowth of mutant rice
Description: (§1) Seeds of a proprietary ACCase resistant rice variety, i.e. RTA1, was used. RTA1, ML0831265-01493 (ATCC deposit PTA-12933, mutation G2096S) variety rice seeds were supplied by RiceTec. RTA1 rice cultivar contains a single mutation in the ACCase gene that confer ACCase resistance. The mutation makes the enzyme insensitive to quizalofop.
(§2) Mutant rice seeds were planted in commercial greenhouse soil mix in 10×10×10 cm plastic pots. 250 mL of soil was put into each pot, then the seeds were placed on top of the soil and the seeds were covered with 100-150 mL of soil. Approximately 8-10 seeds were planted per pot. The pots were then watered with 100 mL of a mixture of Miracle Grow and Fertiplus (iron supplement). The pots were placed in the greenhouse (38° C./20° C. day/night, 14 h photoperiod with supplemental light). The average light intensity in the greenhouse was 150 μM/m^2/sec.
Plants were grown until 10 days after planting and then the pots were transferred to trays and the plants were grown under water. :Plants were treated when they reached the 3-5 leaf stage.
Safeners were tank mixed with the herbicide in the spray bottle.
(§3) Four days after treatment, the tops of the plants were cut off so that approximately 2.5 cm of plant from the top of the soil remain. The plants were allowed to regrow for 3 days at which time the amount of regrowth was weighed by measuring the amount of fresh weight of tissue that regrew. Comparing the weight of regrowth of shoots after cutting indicates the level of phytotoxicity the herbicide had on the mutant rice plant and the increased level of resistance of the mutant rice to the herbicide when the herbicide was applied in combination with the safener.
The safeners were applied in various w/w ratios with the ACCase inhibiting herbicides to the rice plant.

[2] = test system: ACCase inhibitor resistant rice seeds (ML0831265-01493 (ATCC deposit PTA-12933, mutation G2096S)); experiment: Safener seed treatment with propaquizafop or quizalofop: regrowth of resistant rice
Description: as §1, §2
Plants were grown until 10 days after planting and then the pots were transferred to trays and the plants were grown under water. :Plants were treated when they reached the 3-5 leaf stage. […]
as §3
The safeners were also applied in various w/w ratios of the ACCase inhibiting herbicides to the rice seeds.

[3] = test system: ALS resistant rice variety (A205V and G654E substitution); experiment: Imazamox dose response with or without isoxadifen, regrowth, ALS resistant rice
Description: (§4) Seed of an ALS resistant rice variety (rice plant with the A205V and G654E substitution (ATCC accession numbers PTA-123859, PTA-123860 and/or PTA-123861) is planted in a commercial greenhouse soil mix in 10×10×10 cm plastic pots. 250 mL of soil is put into each pot, then the seed is placed on top of the soil and the seed is covered with 100-150 mL of soil. Approximately 8-10 seeds are planted per pot. The pots are then watered with 100 mL of a mixture of Miracle Grow and Fertiplus (iron supplement). The pots are placed in the greenhouse (38° C./20° C. day/night, 14 h photoperiod with supplemental light). The average light intensity in the greenhouse is 150 μM/m^2/sec.
(§5) Plants are grown until 10 days after planting and then the pots are transferred to trays and the plants are grown under water. Plants are treated when they reach the 3-5 leaf stage.
(§6) Generally, plants are treated through a moving nozzle spray system in a spray volume of 200 l/ha or 187 l/ha. Isoxadifen is tank mixed with the herbicide in the spray bottle at a rate of 100 g/ha.
(§7) Four days after treatment, the tops of the plants are cut off to approximately 3 cm from the top of the soil. The plants are allowed to regrow for 7 days at which time the amount of regrowth is measured by cutting any growth above 3 cm above the top of soil and weighing the tissue that regrew.
Efficacy tests were conducted to determine the effect of imazamox on rice plant with the A205V and G654E substitutions (ATCC accession numbers PTA-123859, PTA-123860 and/or PTA-123861) in the presence of safener (isoxadifen).
(§8) The imazamox (in rates of 0, 2.2, 6.6, 19.7, 54.9 and 177.3 g/ha) was applied on wild type rice and herbicide resistance rice in the presence or absence of safener (isoxadifen at 100 g/ha).
(§9) The improvement in regrowth was calculated by subtracting the regrowth from a) wild type rice and wild type rice with isoxadifen; b) herbicide resistant rice; and c) herbicide resistant rice and isoxadifen.
(§10) Calculations were done for each application rate of imazamox. The efficacy of safener alone and mutation alone on decreasing herbicide effect/increasing herbicide resistance were calculated. The relative fresh weight re-growth is the percentage of activity (for Colby).
(§11) The re-growth data was implemented in curve and the synergistic effect was calculated. The observed efficacy is higher than calculated efficacy.

[4] = test system: wild type rice (Non-Traited Rice); experiment: Imazamox dose response with or without isoxadifen, regrowth, wild type rice; conditions: for Calculated effect of Safener (relative fresh weight re-growth): difference with and without isoxadifen on Non-Traited Rice
Description: as §4, §5, §6, §7, §8, §9, §10, §11

[5] = propaquizafop, safener seed treatment 0.5 g/kg of seed
[6] = propaquizafop, safener seed treatment 1 g/kg of seed
[7] = propaquizafop, safener seed treatment 2 g/kg of seed
[8] = quizalofop, safener seed treatment 0.5 g/kg of seed
[9] = quizalofop, safener seed treatment 1 g/kg of seed
[10] = quizalofop, safener seed treatment 2 g/kg of seed
[11] = tank mix with propaquizafop 50 g/ha, safener 12.5 g/ha
[12] = tank mix with propaquizafop 50 g/ha, safener 25 g/ha
[13] = tank mix with propaquizafop 50 g/ha, safener 50 g/ha
[14] = tank mix with propaquizafop 50 g/ha, safener 100 g/ha
[15] = tank mix with quizalofop 40 g/ha, safener 12.5 g/ha
[16] = tank mix with quizalofop 40 g/ha, safener 25 g/ha
[17] = tank mix with quizalofop 40 g/ha, safener 50 g/ha
[18] = tank mix with quizalofop 40 g/ha, safener 100 g/ha

Structure (SMILES): CC(C)=NOCCOC(=O)[C@@H](C)Oc1ccc(Oc2cnc3cc(Cl)ccc3n2)cc1 [Propaquizafop, (R)-2-[[(1-methylethylidene)amino]oxy]ethyl 2-[4-[(6-chloro-2-quinoxalinyl)oxy]phenoxy]propanoate]
- Regrowth (fresh weight mg) ([1]; propaquizafop 50 g/ha, no safener): 25 mg
- Regrowth (fresh weight mg) ([2]; propaquizafop, seeds without safener): 55 mg

Structure (SMILES): COCc1cnc(C2=NC(C)(C(C)C)C(=O)N2)c(C(=O)O)c1 (racemic) [Imazamox, 2-[(RS)-4-isopropyl-4-methyl-5-oxo-2-imidazolin-2-yl]-5-methoxymethylnicotinic acid]
- Relative fresh weight re-growth after treatment ([3]; Mutant & Safener (isoxadifen 100 g/ha), imazamox 2.2 g/ha): 1.17
- Relative fresh weight re-growth after treatment ([3]; Mutant & Safener (isoxadifen 100 g/ha), imazamox 6.6 g/ha): 1.33
- Relative fresh weight re-growth after treatment ([3]; Mutant & Safener (isoxadifen 100 g/ha), imazamox 19.7 g/ha): 1.14
- Relative fresh weight re-growth after treatment ([3]; Mutant & Safener (isoxadifen 100 g/ha), imazamox 54.9 g/ha): 0.53
- Relative fresh weight re-growth after treatment ([3]; Mutant & Safener (isoxadifen 100 g/ha), imazamox 177.3 g/ha): 0.13
- Relative fresh weight re-growth after treatment ([3]; Mutant, no safener, imazamox 2.2 g/ha): 0.93
- Relative fresh weight re-growth after treatment ([3]; Mutant, no safener, imazamox 6.6 g/ha): 0.99
- Relative fresh weight re-growth after treatment ([3]; Mutant, no safener, imazamox 19.7 g/ha): 0.68
- Relative fresh weight re-growth after treatment ([3]; Mutant, no safener, imazamox 54.9 g/ha): 0.42
- Relative fresh weight re-growth after treatment ([3]; Mutant, no safener, imazamox 177.3 g/ha): 0.15
- Calculated efficacy base on Colby (%) ([3]; expected for mutant & safener, imazamox 42 g/ha): 50%
- additive effect of safener and mutant on ED50 ([3]; expected, 4+85): 89 folds
- observed increase in ED50 ([3]; herbicide resistant rice with safener vs the wildtype): 120 folds
- Observed efficacy (%) ([3]; mutant & safener, imazamox 42 g/ha): 77%
- Efficacy at ED50 of mutant- 42 g/ha (%) ([3]; mutant alone, imazamox 42 g/ha): 50%
- increase in tolerance to herbicide (ED50) by the mutation ([3]; mutant rice vs wildtype rice, no safener): 85 fold
- Relative fresh weight re-growth after treatment ([4]; Non-Traited Rice, imazamox 2.2 g/ha): 0.36
- Relative fresh weight re-growth after treatment ([4]; Non-Traited Rice, imazamox 6.6 g/ha): 0.16
- Relative fresh weight re-growth after treatment ([4]; Non-Traited Rice, imazamox 19.7 g/ha): 0.14
- Relative fresh weight re-growth after treatment ([4]; Non-Traited Rice, imazamox 54.9 g/ha): 0.11
- Relative fresh weight re-growth after treatment ([4]; Non-Traited Rice, imazamox 177.3 g/ha): 0.09
- Relative fresh weight re-growth after treatment ([4]; Safener & Non-Traited Rice (isoxadifen 100 g/ha), imazamox 2.2 g/ha): 0.47
- Relative fresh weight re-growth after treatment ([4]; Safener & Non-Traited Rice (isoxadifen 100 g/ha), imazamox 6.6 g/ha): 0.17
- Relative fresh weight re-growth after treatment ([4]; Safener & Non-Traited Rice (isoxadifen 100 g/ha), imazamox 19.7 g/ha): 0.06
- Relative fresh weight re-growth after treatment ([4]; Safener & Non-Traited Rice (isoxadifen 100 g/ha), imazamox 54.9 g/ha): 0.05
- Relative fresh weight re-growth after treatment ([4]; Safener & Non-Traited Rice (isoxadifen 100 g/ha), imazamox 177.3 g/ha): 0.05
- Efficacy at ED50 of mutant- 42 g/ha (%) ([4]; calculated effect of safener alone, imazamox 42 g/ha): 0%
- Calculated effect of Safener (relative fresh weight re-growth) ([4]; imazamox 2.2 g/ha): 0.12
- Calculated effect of Safener (relative fresh weight re-growth) ([4]; imazamox 6.6 g/ha): 0.02
- Calculated effect of Safener (relative fresh weight re-growth) ([4]; imazamox 19.7 g/ha): −0.08
- Calculated effect of Safener (relative fresh weight re-growth) ([4]; imazamox 54.9 g/ha): −0.06
- Calculated effect of Safener (relative fresh weight re-growth) ([4]; imazamox 177.3 g/ha): −0.04
- increase of resistance (ED50) by the safener ([4]; wildtype rice with safener vs without): 4 folds

Structure (SMILES): CC1COc2ccccc2N1C(=O)C(Cl)Cl (centres unmarked) [Benzacor, benoxacor]
- Regrowth (fresh weight mg) [2, 5]: 37 mg
- Regrowth (fresh weight mg) [2, 6]: 107 mg
- Regrowth (fresh weight mg) [2, 7]: 98 mg
- Regrowth (fresh weight mg) [2, 8]: 90 mg
- Regrowth (fresh weight mg) [2, 9]: 72 mg
- Regrowth (fresh weight mg) [2, 10]: 78 mg

Structure (SMILES): O=C(C(Cl)Cl)N1CCOC12CCCCC2 [AD-67]
- Regrowth (fresh weight mg) [1, 11]: 68 mg
- Regrowth (fresh weight mg) [1, 12]: 222 mg
- Regrowth (fresh weight mg) [1, 13]: 288 mg
- Regrowth (fresh weight mg) [1, 14]: 512 mg
- Regrowth (fresh weight mg) [1, 15]: 202 mg
- Regrowth (fresh weight mg) [1, 16]: 292 mg
- Regrowth (fresh weight mg) [1, 17]: 348 mg
- Regrowth (fresh weight mg) [1, 18]: 505 mg
- Regrowth (fresh weight mg) [2, 5]: 173 mg
- Regrowth (fresh weight mg) [2, 6]: 113 mg
- Regrowth (fresh weight mg) [2, 7]: 170 mg
- Regrowth (fresh weight mg) [2, 8]: 233 mg
- Regrowth (fresh weight mg) [2, 9]: 285 mg
- Regrowth (fresh weight mg) [2, 10]: 298 mg

Structure (SMILES): O=C(O)COc1ccc(Cl)c2cccnc12 [Cloquinoce, cloquintocet]
- Regrowth (fresh weight mg) [1, 11]: 42 mg
- Regrowth (fresh weight mg) [1, 12]: 90 mg
- Regrowth (fresh weight mg) [1, 13]: 158 mg
- Regrowth (fresh weight mg) [1, 14]: 355 mg
- Regrowth (fresh weight mg) [1, 15]: 172 mg
- Regrowth (fresh weight mg) [1, 16]: 132 mg
- Regrowth (fresh weight mg) [1, 17]: 252 mg
- Regrowth (fresh weight mg) [1, 18]: 398 mg
- Regrowth (fresh weight mg) [2, 5]: 275 mg
- Regrowth (fresh weight mg) [2, 6]: 342 mg
- Regrowth (fresh weight mg) [2, 7]: 358 mg
- Regrowth (fresh weight mg) [2, 8]: 143 mg
- Regrowth (fresh weight mg) [2, 9]: 145 mg
- Regrowth (fresh weight mg) [2, 10]: 273 mg

Structure (SMILES): Clc1cc(Cl)nc(-c2ccccc2)n1 [Fenclorim, fenclorim]
- Regrowth (fresh weight mg) [1, 11]: 15 mg
- Regrowth (fresh weight mg) [1, 12]: 13 mg
- Regrowth (fresh weight mg) [1, 13]: 15 mg
- Regrowth (fresh weight mg) [1, 14]: 15 mg
- Regrowth (fresh weight mg) [1, 15]: 42 mg
- Regrowth (fresh weight mg) [1, 16]: 52 mg
- Regrowth (fresh weight mg) [1, 17]: 67 mg
- Regrowth (fresh weight mg) [1, 18]: 55 mg
- Regrowth (fresh weight mg) [2, 5]: 137 mg
- Regrowth (fresh weight mg) [2, 6]: 195 mg
- Regrowth (fresh weight mg) [2, 7]: 283 mg
- Regrowth (fresh weight mg) [2, 8]: 163 mg
- Regrowth (fresh weight mg) [2, 9]: 167 mg
- Regrowth (fresh weight mg) [2, 10]: 180 mg
